Test results published in paper PMC5589637, “New perspectives of cobalt tris(bipyridine) system: anti-cancer effect and its collateral sensitivity towards multidrug-resistant (MDR) cancers” (Oncotarget, 2017).

Columns and labels:
[1] = tested on: A2780 cisplatin-resistant cancer cells; test: MTT cytotoxicity, cisplatin-resistant A2780; assay type: cell-based; conditions: for IC50: A2780 cisplatin-resistant, MTT, 72 h; for Resistant Factor, A2780: cisplatin-resistant over cisplatin-sensitive IC50, A2780
Excerpt: (§1) All cells were obtained from the American Type Culture Collection (Rockville, MD, USA) unless otherwise specified. Immortalized wild-type and Atg7-deficient mouse embryonic fibroblasts (MEFs) were kindly provided by Professor Masaaki Komatsu (Juntendo University, School of Medicine, Japan). Taxol-resistant types of MCF-7, HCT-8, A549 cancers cells and cisplatin-resistant SGC7901 cancer cells were purchased from KeyGEN BioTECH, China. Cisplatin-sensitive or –resistant A2780, OV2008 and C13 cancer cells were kindly provided by Prof. Benjamin Tsang (Department of Obstetrics and Gynecology and Department of Cellular and Molecular Medicine, University of Ottawa, Canada). HCT116 p53^+/+ and p53^−/− isogenic human colon cancer cells were kindly provided by Professor Bert Vogelstein (Ludwig Center at Johns Hopkins, Howard Hughes Medical Institute, USA). All media were supplemented with 10% fetal bovine serum and antibiotics penicillin (50 U/ml) and streptomycin (50 μg/ml; Invitrogen, Paisley, Scotland, UK). All cell cultures were incubated at 37°C in a 5% humidified CO2 incubator.
(§2) All tested compounds were dissolved in DMSO at a final concentration of 50 mmol/L and stored at −20°C before use. Cytotoxicity was assessed by using the 3-(4,5-dimethylthiazol-2-yl)-2, 5-diphenyltetrazolium bromide (MTT) (5.0 mg/ml) assay as previously described. Briefly, 4×10^3 cells per well were seeded in 96-well plates before drug treatments. After overnight culture, the cells were then exposed to different concentrations of selected compounds ([…]) for 72 hours. Cells without drug treatment were used as control. Subsequently, MTT (10 μL) solution was added to each well and incubated at 37°C for 4 hours followed by the addition of 100 μL solubilization buffer (10%SDS in 0.01 mol/L HCl) and overnight incubation. A570 nm was then determined in each well on the next day. The percentage of cell viability was calculated using the following formula: Cell viability (%) = Atreated/Acontrol × 100. Data were obtained from three independent experiments.

[2] = tested on: cisplatin-resistant cancer cells (A2780, SGC-7901, OV2008 and C13); test: MTT cytotoxicity, summary over cisplatin-sensitive/resistant pairs; assay type: cell-based; conditions: over A2780, SGC-7901, OV2008/C13 pairs
Method: as §2

[3] = tested on: OV2008 (cisplatin-sensitive) cells; test: MTT cytotoxicity, OV2008 (cisplatin-sensitive); assay type: cell-based; conditions: 72 h, read-out: IC50 value, cisplatin-sensitive cancer, OV2008
Excerpt: as §1, §2

[4] = tested on: SGC-7901 cisplatin-sensitive cancer cells; test: MTT cytotoxicity, cisplatin-sensitive SGC-7901; assay type: cell-based; conditions: 72 h
Excerpt: as §1, §2

[5] = tested on: SGC-7901 cisplatin-resistant cancer cells; test: MTT cytotoxicity, cisplatin-resistant SGC-7901; assay type: cell-based; conditions: for IC50: SGC-7901 cisplatin-resistant, MTT, 72 h; for Resistant Factor, SGC-7901: cisplatin-resistant over cisplatin-sensitive IC50, SGC-7901
Excerpt: as §1, §2

[6] = tested on: A2780 cisplatin-sensitive cancer cells; test: MTT cytotoxicity, cisplatin-sensitive A2780; assay type: cell-based; conditions: 72 h
Excerpt: as §1, §2

[7] = tested on: C13 (cisplatin-resistant) cells; test: MTT cytotoxicity, C13 (cisplatin-resistant); assay type: cell-based; conditions: for IC50: C13 (cisplatin-resistant), MTT, 72 h, read-out: IC50 value, cisplatin-resistant cancer, C13; for Resistant Factor, OV2008/C13 pair: C13 (resistant) IC50 over OV2008 (sensitive) IC50
Excerpt: as §1, §2

[8] = Pharmacokinetic study (HPLC-MS of blood samples); assay type: in vivo; conditions: male C57BL/6 mice
Method: Pharmacokinetic study of cobalt complex 2 was performed in male C57BL/6 mice by the dosage of 40 mg/kg. The source of mouse and practice of husbandry were the same as described in the methodology section of LLC-1 Xenograft Tumor experiment. Cobalt complex 2 was diluted in the formula (PEG400: H2O: Ethanol = 6:3:1) and administered by intraperitoneal in a volume of 0.005 mL/g bodyweight. After dosing, blood samples were collected to sodium heparin anticoagulant tube at different time points (5, 15, 30 min, and then 1, 2, 4, 8, 12 and 24 hours); 4 mice were used for each time point. Approximately 200 μL of blood was collected via orbital vein from each anesthetized mouse by isoflurane. Plasma was separated by centrifugation at 3000 g for 10 minutes at 4°C. The plasma was protected and stored at −80°C until analyzed by liquid chromatography-mass spectrometry/mass spectrometry (LC-MS/MS) for quantification.
Plasma samples were thawed at room temperature and then vortexed to ensure sample solution homogeneity. Firstly, a 20 μL aliquot of each plasma sample were loaded into 1.5 mL tube, 100 μL acetonitrile was added, vortexed then centrifuged at 13000 rpm for 10 min. the supernatant was collected. The plasma cobalt complex 2 concentrations were quantified using Thermo HPLC Ultimate 3000 system. The compound in plasma samples were analyzed by using the Agilent Zorbax Eclipse Plus C-18 column with a particle size of 1.8 μm. The parameters of the gradient elution program were applied as follows: mobile phase A (0.1% formic acid in water) and mobile phase B acetonitrile: 0–5.5 min, 20% B; 5.5–7 min, 90% B; 7–10 min, 20% B. The column and autosampler temperature were maintained at 40 and 4 °C, respectively. The gas temperature was set 320 °C with flow rate (0.8 mL/min), gases were set at 10 psi for the nebulizer, capillary, 3500 V.

[9] = tested on: H1299 (lung cancer) cells; test: MTT cytotoxicity assay, H1299; assay type: cell-based, human; conditions: 72 h
Method: as §2

[10] = tested on: HCT-8 taxol-sensitive cancer cells; test: MTT cytotoxicity, taxol-sensitive HCT-8; assay type: cell-based; conditions: 72 h
Excerpt: as §1, §2

[11] = tested on: MCF-7 taxol-sensitive cancer cells; test: MTT cytotoxicity, taxol-sensitive MCF-7; assay type: cell-based; conditions: 72 h
Excerpt: as §1, §2

[12] = tested on: HeLa (cervical cancer) cells; test: MTT cytotoxicity assay, HeLa; assay type: cell-based; conditions: 72 h
Method: as §2

[13] = tested on: Hep3B (liver cancer) cells; test: MTT cytotoxicity assay, Hep 3B; assay type: cell-based; conditions: 72 h
Method: as §2

[14] = tested on: H1975 (EGFR mutant lung cancer) cells; test: MTT cytotoxicity assay, H1975; assay type: cell-based; conditions: 72 h
Method: as §2

[15] = tested on: LLC-1 (mouse lung cancer) cells; test: MTT cytotoxicity assay, LLC-1; assay type: cell-based; conditions: LLC-1, MTT, 72 h
Method: as §2

[16] = tested on: MCF-7 (breast cancer) cells; test: MTT cytotoxicity assay, MCF-7; assay type: cell-based; conditions: MCF-7, MTT, 72 h
Method: as §2

[17] = tested on: HCT116 p53^-/- colon cancer cells; test: MTT cytotoxicity, HCT116 p53-/-; assay type: cell-based, human
Excerpt: as §1, §2

[18] = tested on: HCT116 p53^+/+ colon cancer cells; test: MTT cytotoxicity, HCT116 p53+/+; assay type: cell-based, human; conditions: 72 h
Excerpt: as §1, §2

[19] = tested on: A549 taxol-resistant cancer cells; test: MTT cytotoxicity, taxol-resistant A549; assay type: cell-based
Excerpt: as §1, §2

[20] = tested on: A549 (EGFR wild-type lung cancer) cells; test: MTT cytotoxicity assay, A549; assay type: cell-based; conditions: 72 h
Method: as §2

[21] = tested on: MCF-7 taxol-resistant cancer cells; test: MTT cytotoxicity, taxol-resistant MCF-7; assay type: cell-based
Excerpt: as §1, §2

[22] = tested on: HepG2 (liver cancer) cells; test: MTT cytotoxicity assay, HepG2; assay type: cell-based; conditions: 72 h
Method: as §2

[23] = tested on: HCT-8 taxol-resistant cancer cells; test: MTT cytotoxicity, taxol-resistant HCT-8; assay type: cell-based
Excerpt: as §1, §2

[24] = tested on: normal human LO2 hepatocytes; test: MTT cytotoxicity assay, LO2; assay type: cell-based; conditions: 72 h
Method: as §2

[25] = tested on: A549 taxol-sensitive cancer cells; test: MTT cytotoxicity, taxol-sensitive A549; assay type: cell-based; conditions: 72 h
Excerpt: as §1, §2

Which results are given for N.N.[Cl][Pt][Cl] [Cisplatin, cis-[Pt^II(NH3)2Cl2], reference compound]?
IC50 [1]: > 200 µM; Resistant Factor, A2780 [1]: > 13.25; resistant factor in cisplatin-resistant cancers (summary) [2]: up to 13.25; IC50 [3]: 18.2 µM; IC50 [4]: 3.92 µM; IC50 [5]: 43 µM; Resistant Factor, SGC-7901 [5]: 10.97; IC50 [6]: 15.1 µM; IC50 [7]: > 200 µM; Resistant Factor, OV2008/C13 pair [7]: > 11.0

Which “species detected in blood samples by HPLC-MS” value ([8]; 40 mg/kg intraperitoneal of complex 2, 5 min to 24 hours) does the source give for Cc1ccnc(-c2cc(C)ccn2)c1 [Me2-bpy] here?
Its value is “only the free ligand of Me2-bpy was detected”.

And the “free ligand signal (m/z 185.1071) in samples after 2-hour time interval” value ([8]; 40 mg/kg intraperitoneal of complex 2, after 2 hours)?
The value was “very weak or no detectable signal”.

Which results are given for Cc1ccnc(-c2cc(C)ccn2)c1.Cc1ccnc(-c2cc(C)ccn2)c1.Cc1ccnc(-c2cc(C)ccn2)c1.F[P-](F)(F)(F)(F)F.F[P-](F)(F)(F)(F)F.[Co+2] [complex 1, [Co^II(4,4’-Me2-bpy)3](PF6)2]?
IC50 [9]: 3.43 µM; IC50 [10]: 3.13 µM; IC50 [1]: 11.2 µM; Resistant Factor, A2780 [1]: 0.94; IC50 [11]: 4.62 µM; IC50 [12]: 10.1 µM; IC50 [13]: 4.06 µM; IC50 [14]: 15.4 µM; IC50 [15]: 2.79 µM; IC50 [3]: 7.06 µM; IC50 [16]: 15.4 µM; IC50 ([17]; HCT116 p53-/-, MTT, 72 h): 8.89 µM; Resistant Factor, HCT116 p53-/- vs p53+/+ ([17]; IC50 p53-/- over IC50 p53+/+): 0.52; IC50 [4]: 11.7 µM; IC50 [18]: 17.1 µM; IC50 ([19]; A549 taxol-resistant, MTT, 72 h): 2.37 µM; Resistant Factor, A549 ([19]; IC50 of taxol-resistant cells over IC50 of taxol-sensitive cells, A549): 0.25; IC50 [5]: 17.6 µM; Resistant Factor, SGC-7901 [5]: 1.50; IC50 [20]: 9.45 µM; IC50 [6]: 11.9 µM; Resistant Factor, MCF-7 ([21]; IC50 of taxol-resistant cells over IC50 of taxol-sensitive cells, MCF-7): 0.54; IC50 ([21]; MCF-7 taxol-resistant, MTT, 72 h): 2.51 µM; IC50 [22]: 7.39 µM; IC50 ([23]; HCT-8 taxol-resistant, MTT, 72 h): 1.16 µM; Resistant Factor, HCT-8 ([23]; IC50 of taxol-resistant cells over IC50 of taxol-sensitive cells, HCT-8): 0.37; IC50 [7]: 15.6 µM; Resistant Factor, OV2008/C13 pair [7]: 2.21; IC50 [24]: 13.5 µM; IC50 [25]: 9.59 µM
